{
  "source": "patent US8957060B2",
  "about": "“Tumescent antibiotic solution” (priority 2004, dated 2015)",
  "key": {"[1]": {"assay": "Pharmacokinetics of TAD vs IVAD (cefazolin, metronidazole): AUC and Cmax in TISF and serum", "description": "A clinical pharmacologic investigation was conducted to compare the pharmacokinetic advantages of two modes of systemic antibiotic delivery, Tumescent antibiotic delivery (TAD), which involves the delivery of a relatively large volume of an antibiotic-containing solution to the subcutaneous compartment, and intravenous antibiotic delivery (IVAD), which results in direct delivery of antibiotics to the blood stream, for prophylaxis of SSI. […] Methods\nWith Institutional Review Board (IRB) approval, the absorption pharmacokinetics of tumescent antibiotic delivery (TAD) and intravenous antibiotic delivery (IVAD) were tested in human subjects and the antibiotic delivery modes were evaluated with respect to the area under the curve (AUC) of antibiotic concentration as a function of time and peak antibiotic concentration (Cmax) in serum and TISF. 4 female subjects participated in at least one study, one subject volunteered for 2 separate studies. 5 studies were conducted: 3 involved TAD to the abdomen, 1 involved TAD to the hips and outer thighs and 1 involved TAD to the breasts. […] Each of the 5 studies consisted of 2 to 3 pharmacokinetic procedures, for a total of 14 procedures. Any procedures conducted on an individual subject were separated by at least one week. In 13 procedures only IVAD or TAD, was used. In one procedure both IVAD and TAD were used concurrently, with IVAD started and finished within five minutes after completing TAD.\nTAD was conducted as described herein. Following TAD, sequential 10 ml samples of tumescent adipose tissue were obtained using a hand-held syringe-liposuction technique. Sampling began immediately after completing the TAD infiltration (T0), and continuing until the patients reported significant discomfort. Liposuction aspirate samples were obtained at 0, 1, 2, 3, 4, 6, and 8 hours in all procedures; in 4 TAD procedures, sampling continued until 10 hours. Sequential serum samples for measurement of antibiotic concentration in serum after TAD ([Serum]TAD) were obtained simultaneously.\nFor IVAD, the antibiotic was delivered into an antecubital vein. […]"}, "[2]": {"test_system": "Staphyloccus aureus (MRSA) ATCC 33592", "assay": "Minimum Inhibitory Concentration (MIC), dilution method", "conditions": "Staphylococcus aureus, 48 h, read-out: MIC end point", "quoted_text": "Following inoculation, survival of test microorganisms was determined. This method of determining MIC was based on the method described in the NCCLS document M7: Methods for Dilution Antimicrobial Susceptibility Tests for Bacteria that Grow Aerobically; Approved Standard—Seventh Edition."}, "[3]": {"test_system": "Staphyloccus aureus (MRSA) ATCC 33592", "assay": "Minimum Bactericidal Concentration (MBC)", "type": "cell-based", "conditions": "Staphylococcus aureus, read-out: MBC end point", "from_the_text": "Determinations of MBC followed the method described in “Report on the Working Party on Antibiotic Sensitivity Testing of the British Society of Antimicrobial Chemotherapy: A Guide to Sensitivity Testing.”"}, "[4]": {"conditions": "cited from earlier work"}, "[5]": {"conditions": "cited from earlier work", "remark": "listed apart in the source"}, "[6]": {"test_system": "platelet aggregation induced by ADP, epinephrine and collagen", "conditions": "cited from earlier work"}},
  "note": "Read-outs that look alike come from different tables or passages of the source.",
  "data": [
    {"compound": "Cc1ncc([N+](=O)[O-])n1CCO", "note": "[Metronidazole]", "values": [
      {"measurement": "AUC[Serum]IVAD", "setting": "[1]; Study 5, 600 mg metronidazole IVAD", "value": 127},
      {"measurement": "period in which serum concentration of metronidazole exceeds 4 μg/ml", "setting": "[1]; female, human, in vivo", "value": "0 to 12", "unit": "h"}
    ]},
    {"compound": "CO[C@@]1(NC(=O)Cc2cccs2)C(=O)N2C(C(=O)O)=C(COC(N)=O)CS[C@@H]21", "note": "[cefoxitin]", "values": [
      {"measurement": "times greater antibiotic exposure in ISF by TAD than by IVAD (150×AUC[ISF]IVAD<AUC[TISF]TAD)", "setting": "[1]; human, in vivo", "value": 150}
    ]},
    {"compound": "Cc1nnc(SCC2=C(C(=O)O)N3C(=O)[C@@H](NC(=O)Cn4cnnn4)[C@H]3SC2)s1", "note": "[Cefazolin]", "values": [
      {"measurement": "MIC", "setting": "[2]", "value": 250, "unit": "µg/mL"},
      {"measurement": "MBC", "setting": "[3]; 24 h, Day 1", "value": 250, "unit": "µg/mL"},
      {"measurement": "MBC", "setting": "[3]; 48 h, Day 2", "value": 250, "unit": "µg/mL"}
    ]},
    {"compound": "CCN(CC)CC(=O)Nc1c(C)cccc1C", "note": "[Lidocaine]", "values": [
      {"measurement": "duration of local anesthesia", "setting": "[4]; 1% or 2% commercial concentrations of lidocaine with epinephrine", "value": "2 to 3", "unit": "h"},
      {"measurement": "persistence of profound surgical local anesthesia", "setting": "[4]; tumescent local anesthesia (TLA)", "value": "6 to 8", "unit": "h"},
      {"measurement": "dosage limitation approved by the FDA", "setting": "[5]; infiltration local anesthesia, commercial lidocaine (1%) with epinephrine (1:100,000)", "value": 7, "unit": "mg/kg"},
      {"measurement": "maximum safe mg/kg dosage (estimated)", "setting": "[5]; tumescent lidocaine, TLA without liposuction, adults", "value": 30, "unit": "mg/kg"},
      {"measurement": "concentration that consistently inhibits in-vitro platelet aggregation", "setting": "[6]; aggregation induced by ADP, epinephrine and collagen", "value": "≥ 0.5", "unit": "mg/mL"},
      {"measurement": "safe systemic concentration with no effect on platelet aggregation", "setting": "[6]", "value": "≤ 6", "unit": "micrograms/ml"}
    ]}
  ]
}
